Results: PMC4424274, “Evaluation of [^11C]CB184 for imaging and quantification of TSPO overexpression in a rat model of herpes encephalitis” (European Journal of Nuclear Medicine and Molecular Imaging, 2015)
Values joined by “and” are separate entries in the source; they are usually repeats but may differ in a detail not shown here. Equal values may be shown once. Read-outs that look alike come from different tables or passages of the source.

Experiments:
[1] = lipophilicity; cited from earlier work
[2] = target: TSPO; parameters: method as in PMID 25616581; conditions: cited from earlier work
[3] = Radioactive metabolites of [^11C]CB184 in brain; assay type: in vivo, rat; conditions: 30 min after injection
Method: To determine if radioactive metabolites of [^11C]CB184 entered the brain, the brain of one control rat and one HSE rat were isolated 30 min after injection and homogenized with a solution of ice-cold acetonitrile (3 ml). The homogenate was centrifuged at 6,000 rpm (3,461 g) for 10 min. The supernatant was then collected and processed by HPLC, as described above.

[4] = target: T1, TSPO (Rattus norvegicus, UniProt P16257); assay: Kinetic modelling of PET data (2TCMR, Logan): BPND and VT; assay type: in vivo
T1 construct: from tissue; host or cells: Brain regions and peripheral organs of male Wistar rats, measured in vivo by PET and ex vivo by gamma counting
Method: (§1) PET scans with arterial blood sampling were performed in a different set of rats to generate input for pharmacokinetic modelling. For the arterial blood sampling a cannula was inserted into the femoral artery after induction of anaesthesia. The femoral vein was additionally cannulated for PET tracer injection. After cannulation, the rats were positioned in the camera and a transmission scan was acquired using a ^57Co point source. […] A 0.1 ml blood sample of was taken at 0, 5, 10, 15, 20, 30, 45, 60, 75, 90, 120, 180, 300, 450, 600, 900, 1,800 and 3,600 s after injection. A larger blood sample of 0.5 ml was taken at three time points (5, 15, 30 and/or 60 min) for metabolite analysis. After collection of each blood sample, heparinized saline was injected to prevent large changes in blood pressure. A 25 μl aliquot of whole blood was extracted from each sample for radioactivity measurement. The remainder of each sample was centrifuged at 13,000 rpm (15,996 g) for 8 min, and 25 μl plasma was taken for radioactivity measurement. The radioactivity in blood and plasma was measured with a gamma counter.
The TACs of those rats in which blood sampling was performed, together with their corresponding whole-blood and metabolite-corrected plasma curves, were used for pharmacokinetic modelling using PMOD v3.3 (PMOD Technologies, Zürich, Switzerland). […] The reversible two-tissue compartment model (2TCMR) with K 1/k 2 fixed to the whole cortex value and a fixed blood volume of 3 % were used to calculate the V T and nondisplaceable binding potential (BPND, calculated as k 3/k 4 [29]).

[5] = Plasma clearance and plasma metabolite analysis; assay type: in vivo, rat; conditions: Wistar, rat, in vivo, iv, metabolite-corrected plasma, intravenous injection, rats
Method: as §1
Radioactive metabolites in plasma were measured using the extra blood samples taken at three time points during each scan (5, 15, 30 and/or 60 min). After centrifugation and collection of the plasma sample for radioactive measurement, as described above, the remaining plasma was diluted with acetonitrile (1.5 times the amount of plasma) and vortex-mixed. The plasma suspension was centrifuged at 5,300 rpm (3,030 g) for 3 min, and divided into supernatant and pellet. […] Fractions of 30 s were collected and measured in the gamma counter.
The percentage of metabolites in plasma was calculated by fitting an exponential function to the values obtained from the HPLC analysis. The plasma values obtained from the blood samples during the PET scan were then corrected for the presence of these metabolites, and used together with the whole-blood curve for further analysis. Metabolite corrected plasma TACs were fitted for each individual rat using iterative nonlinear least-squares fitting to the biexponential equation: SUVt = Ae^−αt + Be^−βt, where SUVt is the plasma SUV at time t, α and β are the apparent distribution and elimination rate constants (s^−1), respectively, and A and B are the corresponding zero-time intercepts. The weighting factors were the reciprocals of the plasma SUV squared. Distribution and elimination half-lives (seconds) were calculated as the natural logarithm of 2 divided by α and β, respectively.

[6] = system: TSPO; conditions: normal mice; cited from earlier work
[7] = system: TSPO; parameters: method as in PMID 25616581; conditions: 6-hydroxydopamine-injured striatum in rats; cited from earlier work
[8] = control rats (PBS group), k3/k4

## CCCN(CCC)C(=O)Cc1c(-c2ccc(O[11CH3])cc2)nc2c(Cl)cc(Cl)cn12 [[^11C]CB184]
[1]
  logP: 2.06
[2]; read-out: K i (TSPO affinity)
  Ki: 0.54 nM
[2]; times higher affinity, ratio of K i values
  TSPO affinity relative to (R)-[^11C]PK11195: 7.9 times
[3]
  Percentage of intact tracer present in the brain: approximately 99%
[4]; HSE group, k3/k4
  Binding potential (BPND), Cerebellum: 3.83 ± 0.63
  Binding potential (BPND), Frontal cortex: 3.08 ± 1.20
  Binding potential (BPND), Hippocampus: 2.44 ± 0.34
  Binding potential (BPND), Midbrain: 2.50 ± 0.51
  Binding potential (BPND), Olfactory bulb: 8.82 ± 2.97
  Binding potential (BPND), Rest cortices: 2.69 ± 0.47
  Binding potential (BPND), Striatum: 1.91 ± 0.41
  Binding potential (BPND), Thalamus: 1.85 ± 0.41
  Binding potential (BPND), Whole brain: 3.25 ± 0.41
[4]; [8]
  Binding potential (BPND), Amygdala: 2.4 ± 1.2 and 2.39 ± 1.23
  Binding potential (BPND), Cerebellum: 2.88 ± 1.39
  Binding potential (BPND), Frontal cortex: 2.14 ± 1.23
  Binding potential (BPND), Hippocampus: 1.55 ± 0.90
  Binding potential (BPND), Hypothalamus: 2.7 ± 1.6 and 2.74 ± 1.62
  Binding potential (BPND), Medulla: 2.6 ± 1.2 and 2.64 ± 1.16
  Binding potential (BPND), Midbrain: 1.73 ± 0.98
  Binding potential (BPND), Olfactory bulb: 5.56 ± 2.67
  Binding potential (BPND), Pons: 2.6 ± 1.3 and 2.63 ± 1.31
  Binding potential (BPND), Rest cortices: 2.27 ± 1.37
  Binding potential (BPND), Septum: 1.5 ± 0.9 and 1.53 ± 0.90
  Binding potential (BPND), Striatum: 1.28 ± 0.74
  Binding potential (BPND), Thalamus: 1.17 ± 0.78
  Binding potential (BPND), Whole brain: 2.25 ± 1.17
[4]; medulla
  Increase of BPND in the medulla, HSE rats vs. control rats: 93%
[5]; read-out: Distribution half-life in plasma (converted)
  half-life: 0.283 min
[5]; read-out: Elimination half-life in plasma
  half-life: 44 ± 26 min
[6]
  Uptake in TSPO-rich regions (cerebellum and olfactory bulb) as compared with (R)-[^11C]PK11195: higher uptake
[7]
  Inflammation-induced binding as compared with (R)-[^11C]PK11195: comparable
